Here are results for two compounds from US20020025925A1, “Combination therapy” (priority 1996, published 2002).

Each structure is given as a SMILES string.

Data set [1] concerns rat adjuvant-induced arthritis. Put plainly: Rat adjuvant-induced arthritis model. The format is in vivo. How it is done:
Mean of 10 readings was recorded.
Drugs were formulated fresh for each administration.

The nature of data set [2]: Ex vivo bioassay of blood concentration after oral administration. Also on record: species or system rat. Conditions: 10 mg/kg oral, suspension in PBS/Tween, +/- CyA 0.3 mg/kg, 0.5-24 hrs, n=6. How it is done: Compound 1 (10 mg/kg)±CyA (0.3 mg/kg) (in PBS/0.1% Tween 80™] was administered to healthy male Lewis rats (as above). Blood samples (0.5 ml into a syringe containing 0.1 ml acid citrate dextroset as anticoagulant) were removed from the ventrcolateral tail vein of the halothane anaestetised rat at t=prebleed, 0.5, 1, 2, 6 and 24 hrs. 3 mls methanol was added to each blood sample, mixed and centrifuged at 3000 r.p.m. for 15 minutes (using Beckman GPKR centrifuge). 2.0 ml of the methanol supernatant was removed and evaporated dry. The pellet was redisolved in 200 μl DMSO (dimethylsulphoxide). An aliquot of the solubilised pellet was assayed against fibroblast collagenase using ^14C collagen as substrate, as follows:
Samples were incubated overnight at 37° C. and undigested substrate removed by centrifugation at 11,600 r.p.m. for 15 mins (using Heraeus Biofuge 15). 200 μl of supernatant was tested by liquid scintillation spectrophotometry.
A calibration curve for the test compound of interest was run alongside the blood samples. The concentration of the test compound in the blood was then calculated from the calibration curve.

As to `CCC[C@H](C(=O)NO)[C@@H](CC(C)C)C(=O)N[C@H](C(=O)NC)C(C)(C)C` [Compound 1, 3R-(2,2-Dimethyl-1S-methylcarbamoyl-propylcarbamoyl)-5-methyl-2S-2-propyl-hexanohydroxamic acid], the effect on arthritis entry in data set [1] (Compound 1 10 mg/ml (so in the source), po, bid, days 10-20) is “very little or no effect”. For the same compound, in data set [1] (Compound 1 at doses at or below 10 mg/kg, po, bid (data not shown)), the “reducing the paw volume (swelling)” value was “ineffective”. Further, in data set [2], the “blood concentration of Compound 1 with versus without CyA” value is on record as “equivalent”.

For `CNC(=O)[C@H](Cc1ccccc1)NC(=O)[C@H](CC(C)C)[C@H](CSc1cccs1)C(=O)NO` [Compound 2, [4-(N-Hydroxyamino)-2R-isobutyl-3S-(thiophenylthiomethyl)succinyl]-L-phenylalanine-N-methylamide], the “synergy with cyclosporin A” value in data set [1] (Compound 2 5 mg/kg ip, bid with cyclosporin A 0.3 mg/kg ip, bid) is on record as “act in synergy”.
